Values joined by “and” are separate entries in the source; they are usually repeats but may differ in a detail not shown here. Equal entries are not always repeated.
Experiments:
[1] = molar heat capacity at constant pressure; conditions: 101 kPa, Liquid, Small sample (50 mg) DSC
[2] = 101 kPa, Liquid, Vibrating tube method
[3] = xn = mol fraction of the nth substance listed; conditions: 101 kPa, Liquid, Vibrating tube method, x2 = 0
[4] = molar heat capacity at constant pressure; xn = mol fraction of the nth substance listed; conditions: 101 kPa, Liquid, Small sample (50 mg) DSC, x2 = 0

N#Cc1ccccc1 [benzonitrile]
Conditions | mass density, [2] [kg/m3] | molar heat capacity at constant pressure, [1]
283.15 K | 1013.99 | 163.43 J/K/mol
285.15 K | 1012.21 | 163.9 J/K/mol
288.15 K | 1009.55 | 164.61 J/K/mol and 164.63 J/K/mol
293.15 K | 1005.12 | 165.82 J/K/mol
298.15 K | 1000.69 | 167.06 J/K/mol
303.15 K | 996.26 | 168.32 J/K/mol
308.15 K | 991.83 | 169.59 J/K/mol
313.15 K | 987.4 | 170.87 J/K/mol
318.15 K | 982.96 | 172.15 J/K/mol

CCCCCCCCC [nonane]
Conditions | mass density, [2] [kg/m3] | molar heat capacity at constant pressure, [1] [J/K/mol]
285.15 K | 724.54 | 278.38
288.15 K | 722.22 | 279.6
293.15 K | 718.35 | 281.72
298.15 K | 714.46 | 283.86
303.15 K | 710.55 | 286.11
308.15 K | 706.63 | 288.4
313.15 K | 702.7 | 290.76

CCCCCCCCC [nonane] + N#Cc1ccccc1
Conditions | mass density, [3] [kg/m3] | molar heat capacity at constant pressure, [4] [J/K/mol]
285.15 K | 724.54 | 278.38
288.15 K | 722.22 | 279.6
293.15 K | 718.35 | 281.72
298.15 K | 714.46 | 283.86
303.15 K | 710.55 | 286.11
308.15 K | 706.63 | 288.4
313.15 K | 702.7 | 290.76

CCCCCCCC [octane]
Conditions | mass density, [2] [kg/m3] | molar heat capacity at constant pressure, [1] [J/K/mol]
283.15 K | 710.76 | 248.2
288.15 K | 706.76 | 250.1
293.15 K | 702.74 | 252.06
298.15 K | 698.71 | 254.08
303.15 K | 694.66 | 256.16
308.15 K | 690.58 | 258.28
313.15 K | 686.49 | 260.45
318.15 K | 682.37 | 262.66

CCCCCCCC [octane] + N#Cc1ccccc1
Conditions | mass density, [3] [kg/m3] | molar heat capacity at constant pressure, [4] [J/K/mol]
283.15 K | 710.76 | 248.2
288.15 K | 706.76 | 250.1
293.15 K | 702.74 | 252.06
298.15 K | 698.71 | 254.08
303.15 K | 694.66 | 256.16
308.15 K | 690.58 | 258.28
313.15 K | 686.49 | 260.45
318.15 K | 682.37 | 262.66

Source: the NIST ThermoML archive (doi:10.1021/je100145f)
